Reference: patent publication US20030054988A1, “Modified plasminogen related peptide fragments and their use as angiogenesis inhibitors” (priority 2000, published 2003)

Tests used:
[1] = system: human umbilical vein endothelial cell (HUVEC); assay: bFGF-induced HUVEC migration; assay type: cell-based
Excerpt: (§1) The assay used in these experiments is described by Ji et al. in Biochem. Biophys. Res. Commun. 1998 247:414-419. […] In addition, the modified peptide fragment BMS-291242 (SEQ ID NO: 12) was an extremely potent inhibitor of bFGF-induced HUVEC migration.

HUVEC = HUVEC proliferation in response to mitogenic stimulation; assay type: cell-based, human
Excerpt: The anti-proliferative effects of the modified peptide fragments on endothelial cells in response to different mitogenic stimulation were also examined. The assay used in these experiments is described by Cao et al. in J. Biol. Chem. 1997 272(36):22924-22928. The modified peptide fragment BMS-291102 (SEQ ID NO: 2) was an extremely potent inhibitor of bFGF-elicited HUVEC proliferation.

[2] = system: endothelial cells in the matrigel plug; assay: In vivo Matrigel plug angiogenesis model; details: 100 μM/plug, peptide embedded in matrigel, bFGF stimulation, nude mice
Description: Modified peptide fragments of the present invention were also evaluated in the matrigel plug model to determine their in vivo anti-angiogenic activities. To minimize the effects caused by differential pharmacokinetic properties of these compounds, the matrigel was prepared together with these peptides and the mixture was implanted into nude mice.
MATRIGEL was mixed with basic fibroblast growth factors at a final concentration of 300 μg/ml. Peptide fragments at selected doses were embedded with the MATRIGEL mixture and injected subcutaneously into mice. The animals were allowed to grow for 7 days. The plugs were then excised and the number of endothelial cells in the plug were examined histologically.

[3] = system: human umbilical vein endothelial cell (HUVEC); assay: VEGF-induced HUVEC migration; assay type: cell-based; details: VEGF-induced/stimulated; read-out: inhibition of VEGF-induced HUVEC migration (potency class)
Excerpt: as §1

[4] = bFGF-induced, read-out: inhibition of bFGF-induced HUVEC migration (potency class)

Sequence | IC50 [1, 4] [nM] | reduction of number of endothelial cells in matrigel plug / inhibition of bFGF-elicited in vivo angiogenesis [2] | IC50 [3] [nM] | also measured
AQDWAAQEPHRHSIFTPETNPRAGLEKNYA [BMS-291242] | < 10 | significantly inhibited |  | anti-proliferative activity on endothelial cells (HUVEC; mitogenic stimulus not given): moderate anti-proliferative activity
NYARNPDGDVGGPWAY [BMS-291203, Ac-NYARNPDGDVGGPWAY-NH2] |  | effectively reduced the number of endothelial cells |  | 
NYARNPDGDVGGPWAYTTNPRKLYDYADVPQA [BMS-291245] |  | significantly inhibited |  | 
TTNPRKLYDYADVPQA [BMS-291205, Ac-TTNPRKLYDYADVPQA-NH2] |  |  | < 100 | IC50 ([1]; stimulus not given, presumably bFGF, read-out: IC50, marginal inhibitory activity (HUVEC migration)): 1000 nM
VTGTPAQDWAAQEPHR [BMS-291102, Ac-VTGTPAQDWAAQEPHR-NH2] |  | effectively reduced the number of endothelial cells |  | IC50 (HUVEC; bFGF-elicited, read-out: inhibition of bFGF-elicited HUVEC proliferation (potency class)): < 10 nM
WAAQEPHRHSIFTPET [BMS-291209, Ac-WAAQEPHRHSIFTPET-NH2] | < 100 |  | < 10 | 
